# Test results as given in patent publication US20040086888A1, “Method for tandem genomic/proteomic analysis of proliferating cells” (priority 2003, published 2004).
# Assays:
# human breast tumor cells = assay: Hormonal therapy inhibition of cell proliferation (Example 6); type: cell-based
# [1] = system: human ovarian tumor cells; assay: Combination chemotherapy microtiter assay (Example 5); settings: four tumor specimens
# fibroblast cell line = assay: Immunoperoxidase staining for intermediate filaments; type: cell-based; settings: immunoperoxidase technique, cells in culture
# Text: (§1) The technique is practiced as follows. The same cell culturing and well distribution process is used as in the cytotoxicity assay described above, but rather than exposing the cells to chemotherapeutic or other agents, the cells are instead fixed and stained. With the stain or stain cocktail described below, the epithelial cells are identified by their intermediate filaments and/or specific membrane antigens by means of a monoclonal antibody immunoperoxidase technique. […] The fixed stained cells are then counted. If the specimen is positive for epithelial cells, the process is complete. If the specimen is negative for epithelial cells, an independent fixing and staining process is subsequently completed, with fresh cells from identical wells, using Vimentin as a stain to confirm the non-epithelial nature of the cells.
# (§2) Many tumor specimens will contain a mixture of cancer and normal cells. Although in many cases tumor cells will readily grow in tissue culture while the normal cells will not, it is important to be able to distinguish the two cell types. Using immunoperoxidase techniques to stain cells for various intermediate filaments, the differences between normal (fibroblast-like) cells and cells from epithelial tumors were characterized. These techniques can also be used to identify other tumor cell characteristics which may have prognostic value. […]
# [2] = system: epithelial tumor cell lines; assay: as above; type: cell-based; settings: immunoperoxidase technique, cells in culture
# Text: as §1, §2
# [3] = system: human brain tumor and human ovarian tumor cells; assay: Combined modality drug/radiation microtiter assay (Example 8); type: cell-based; settings: Taxol 0.5-25.0 μM with 2 Gy, or Taxol 5 μM with 1 Gy-6 Gy; through five days post-treatment
# Description: Twenty-four hours post-plating, cells in the microtiter plate wells were exposed to the chemotherapeutic agent Taxol. One set of plates was designed to have escalating Taxol doses with (0.5-25.0 μM) with a fixed radiation dose (2 Gy). A second set of plates was designed to have a fixed Taxol dose (5 μM) with an escalating radiation dose (1 Gy-6 Gy). The cells in the plates were irradiated using a Siemans Stabilipan X-ray machine operating at 250 kVp, 15 mA with a dose rate of 75 rad/min.
# For each of the two treatment schema, cell number per well was monitored as a function of time through five days post-treatment. Cell number relative to controls was determined and survival curves were fit.
# tumor cells in culture = assay: Microtiter well assay of drug/radiation interaction (FIGS. 8A-8C); type: cell-based; settings: Taxol 8.5 ng/ml or 42.5 ng/ml + 2 Gy and 4 Gy versus radiation-only
# Text: The microtiter well assay is ideally suited for examination of the interaction of chemotherapeutic agents and radiation. Issues such as the differential sensitivity of drug/radiation combinations and the timing of drug/radiation combinations may be directly addressed with this system.
compound,measurement,setting,value
CC/C(=C(\c1ccccc1)c1ccc(OCCN(C)C)cc1)c1ccccc1 [Tamoxifen],inhibition of cell proliferation (cell number relative to control),"human breast tumor cells; 10 nM to 20 μM, six doses, 24 h exposure, then 72 h incubation, four breast tumor specimens",two of the four breast specimens tested showed an inhibition of cell proliferation
same,concentration range in which the responses occurred,human breast tumor cells; range tested 10 nM to 20 μM,mid-to-high
N.N.O=C([O-])C1(C(=O)[O-])CCC1.[Pt+2] [carboplatin],cell number relative to control,"[1]; fixed Taxol (5 μM) with escalating carboplatin (50, 200, 1000 μM)",a dose response relationship was observed
Vimentin,staining of fibroblasts,fibroblast cell line,all fibroblast cells were positive
same,staining of epithelial tumor cells,[2],mildly positive
CC(=O)O[C@H]1C(=O)[C@@]2(C)[C@H]([C@H](OC(=O)c3ccccc3)[C@]3(O)C[C@H](OC(=O)[C@H](O)[C@@H](NC(=O)c4ccccc4)c4ccccc4)C(C)=C1C3(C)C)[C@]1(OC(C)=O)CO[C@@H]1C[C@@H]2O [Taxol],"cell killing in combination with radiation (cell number relative to controls, survival curves)",[3],Both additive and synergistic cell killing were noted
same,cell number relative to control,"[1]; escalating Taxol (1.0, 5.0, 25 μM) with fixed carboplatin (200 μM)",a dose response relationship was observed
same,effect on radiation response (survival rates),tumor cells in culture,enhancement of radiation response
